Data as given in PubChem BioAssay (NCI).
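1) Cells in 96-well plates. 2) Compound, 48 h, 5 concentrations. 3) Linear interpolation between surrounding doses. 4) Unreached endpoint = highest concentration. The concentration for full growth arrest is given as TGI.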

System: XF 498 CNS
Experiment: growth of human tumour cells (NCI), 48 h

| SMILES | TGI [µM] |
| --- | --- |
| CC(=O)c1c(O)c2c([nH]c1=O)CCCC2 | > 100 |
| O=c1c2cccc3cccc(c4n1CCCN=4)c32 | > 100 |
| O=C1c2ccoc2C(=O)c2oc(=O)ccc21 | 40 |
| CC(C)(C)c1cc(C(OCCl)(C(F)(F)F)C(F)(F)F)c2c(c1)C(C(F)(F)F)(C(F)(F)F)OC21c2ccccc2C(=O)c2ccccc21 | > 100 |
| C/C(CC(=O)Nc1cccc(Cl)c1C)=N\N=C(N)N | > 100 |
| COC(=O)c1cc2ccccc2c2nc3ccccc3c(Cl)c12 | > 100 |
| NNC(=O)N/N=C1\CNC(=O)C(=O)C1c1nc2ccccc2s1 (stereo unspecified) | > 100 |
| COc1ccc2c3c(c(C(=O)O)oc13)C(CCC(=O)O)CC2 (stereo unspecified) | > 100 |
| NC(=O)C(=O)Cc1nc2ccccc2s1 | > 100 |
| CN(C)CCNC(=O)c1cccc2cc3ccc4ccccc4c3nc12 | 0.237 |
| Nc1ncnc2sc(Nc3ccccc3)nc12 | > 100 |
| CC1(C)OC2OC(COC(=O)C(c3ccccc3)c3ccccc3)C3OC(C)(C)OC3C2O1 (stereo unspecified) | 99.7 |
| C1=C(c2ccccc2)C(OC2Oc3ccccc3C=C2c2ccccc2)Oc2ccccc21 (stereo unspecified) | > 100 |
| C1CCN2CC3CONC3C2C1 (stereo unspecified) | > 100 |
| O=c1[nH]c(=O)n(C2CC(O)C(O)C(CO)O2)cc1F (stereo unspecified) | > 100 |
| O=C(O)C1=C(C(=O)O)Oc2ccccc2O1 | > 100 |
| CC(C)=CC(=O)CC(=O)C(=O)NCCNC(=O)C(=O)CC(=O)C=C(C)C | > 50 |
| Cc1c(C)c2ccc(OC(C)C(=O)O)cc2oc1=O (stereo unspecified) | 99 |
| Cc1cc(OC(=O)c2c(C)cc(OC(=O)c3c(C)cc(O)cc3O)cc2O)cc(O)c1C(=O)O | > 100 |
| Cc1cc2c(cc1C)[n+](=O)c(C(=O)/C=C/c1ccccc1[N+](=O)[O-])c(C)n2[O-] | 37.7 |
| CCOC(=O)COc1cccc2occc(=O)c12 | > 100 |
